Test results taken from patent US20110159122A1, “COMBINATION OF EXTRACTS OF VARIOUS PLANTS FOR IMPROVING THE SYMPTOMS OF DEMENTIA DISORDERS” (Kneipp-Werke Kneipp-Mittel-Zentrale GmbH & Co,KG, priority 2008, published 2011).

How the values were obtained:
[1] = solubility during the preparation of the HPLC standard solutions; type: physicochemical; details: preparation of the standard solutions for HPLC
central nervous system = test: tele-stereo EEG (electroencephalography) of rats after oral administration; type: in vivo; details: for effect of the compound according to formula I reached by known rooibos constituents: approximately equimolar quantities
Excerpt: In the context of the present invention, the pharmacological activity of the compound according to the invention of formula I was compared with the known constituents of the rooibos extract, such as aspalathin, catechin or (−)-epicatechin.
Since these drugs have a broad spectrum of side effects, the use of a rooibos extract with the compound according to formula I is advantageous as a drug because natural substances can usually be expected to have a lower rate of side effects. […] This is not generally commonplace for flavonoids.

monoamine oxidase = details: Plantextrakt, 2005; cited from earlier work

## O=c1cc(-c2ccc(O)c(O)c2)oc2c([C@@H]3O[C@H](CO)[C@@H](O)[C@H](O)[C@H]3O)c(O)cc(O)c12 [orientin, orientin(luteolin-8-C-glucoside)]
[1]
  solubility in standard solutions: exhibited solubility problems

## O=C(CCc1ccc(O)c(O)c1)c1c(O)cc(O)c([C@@H]2O[C@H](CO)[C@@H](O)[C@H](O)[C@H]2O)c1O [aspalathin]
Central nervous system
  effect of the compound according to formula I reached by known rooibos constituents: cannot be achieved with approximately equimolar quantities

## catechin
Central nervous system
  effect of the compound according to formula I reached by known rooibos constituents: cannot be achieved with approximately equimolar quantities

## O=C(CCc1ccc(O)c(O)c1)c1c(O)c(C2OC(CO)C(O)C(O)C2O)c(O)c(C2c3c(O)cc(O)cc3OC(c3ccc(O)c(O)c3)C2O)c1O (centres unmarked) [compound of formula I, aspacat]
Central nervous system; concluded from the in vivo EEG data
  crossing of the blood-brain barrier: evidently also crosses the blood-brain barrier
Central nervous system; rat, in vivo
  discriminant analysis of the in vivo data: a relationship with the drugs for the treatment of dementias, Morbus Parkinson, depression and painful conditions
Central nervous system; rats, oral administration
  pharmacological activity on the central nervous system in tele-stereo EEG: marked pharmacological activity on the central nervous system
Central nervous system; rats, oral administration, as known for galantamine, tacrine, L-DOPA, nefopam
  changes in the EEG frequencies: dose-dependent changes in the EEG frequencies
Central nervous system; versus aspalathin, catechin, (−)-epicatechin
  pharmacological activity compared with known constituents of the rooibos extract: higher pharmacological activity than these known constituents of the rooibos extract

## O=c1c(O)c(-c2ccc(O)c(O)c2)oc2cc(O)cc(O)c12 [Quercetin]
Monoamine oxidase
  inhibition of the production of monoamine oxidase: capable of inhibiting the production of monoamine oxidase

## Oc1cc(O)c2c(c1)O[C@H](c1ccc(O)c(O)c1)[C@H](O)C2 [(−)-epicatechin]
Central nervous system
  effect of the compound according to formula I reached by known rooibos constituents: cannot be achieved with approximately equimolar quantities

## O=c1cc(-c2ccc(O)cc2)oc2c([C@@H]3O[C@H](CO)[C@@H](O)[C@H](O)[C@H]3O)c(O)cc(O)c12 [vitexin, vitexin(apigenin-8-C-glucoside)]
[1]
  solubility in standard solutions: exhibited solubility problems
